Laboratory results as given in patent publication US9018206B2, “Carboxamide compounds and their use as calpain inhibitors” (AbbVie Deutschland GmbH & Co. KG, priority 2009, dated 2015).

Assays:
Assay type in all cases: biochemical
[1] = target: T1, calpain-I isolated from human erythrocytes (Homo sapiens, UniProt P07384); assay: Calpain I enzyme inhibition in vitro (kinetic fluorescence assay); details: apparent Ki from IC50 (Cheng-Prussoff); 20 nM calpain-I, 100 μM Suc-Leu-Tyr-AMC, pH 7.3, room temperature
T1 construct: calpain-I—isolated from human erythrocytes; purchased Calbiochem 208713; host or cells: human erythrocytes (tissue-derived)
T1 sequence (P07384 1-714): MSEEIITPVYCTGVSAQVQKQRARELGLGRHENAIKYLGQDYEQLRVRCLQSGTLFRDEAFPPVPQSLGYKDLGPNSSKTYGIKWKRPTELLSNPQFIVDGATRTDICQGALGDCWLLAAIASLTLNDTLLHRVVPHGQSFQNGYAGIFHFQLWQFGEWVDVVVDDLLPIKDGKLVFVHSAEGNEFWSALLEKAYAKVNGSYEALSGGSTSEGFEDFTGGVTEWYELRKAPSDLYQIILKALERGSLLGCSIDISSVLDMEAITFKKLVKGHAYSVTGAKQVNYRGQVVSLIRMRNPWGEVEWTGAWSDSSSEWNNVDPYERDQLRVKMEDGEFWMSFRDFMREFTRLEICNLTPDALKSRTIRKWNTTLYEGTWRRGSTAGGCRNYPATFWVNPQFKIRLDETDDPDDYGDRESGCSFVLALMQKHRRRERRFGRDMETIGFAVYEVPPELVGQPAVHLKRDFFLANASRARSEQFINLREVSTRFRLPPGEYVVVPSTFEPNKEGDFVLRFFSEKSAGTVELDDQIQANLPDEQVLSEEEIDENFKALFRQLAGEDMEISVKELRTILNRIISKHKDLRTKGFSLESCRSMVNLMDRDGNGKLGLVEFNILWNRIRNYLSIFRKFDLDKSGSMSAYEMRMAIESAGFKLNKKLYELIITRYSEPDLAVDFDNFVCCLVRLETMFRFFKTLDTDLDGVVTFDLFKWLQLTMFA
T1 sequence (P04632 1-268 partner): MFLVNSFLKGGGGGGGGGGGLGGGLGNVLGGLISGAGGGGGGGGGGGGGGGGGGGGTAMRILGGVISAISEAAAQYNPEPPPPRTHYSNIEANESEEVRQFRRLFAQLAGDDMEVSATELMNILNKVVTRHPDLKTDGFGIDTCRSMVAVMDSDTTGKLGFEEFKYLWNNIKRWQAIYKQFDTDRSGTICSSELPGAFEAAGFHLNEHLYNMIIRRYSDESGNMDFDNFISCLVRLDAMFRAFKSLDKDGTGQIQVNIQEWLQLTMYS
Experimental: (§1) Testing for blockade of the corresponding enzymic activities was carried out by means of kinetic fluorescence assays (excitation 390 nm, emission 460 nm).
(§2) Apparent Ki values were calculated from the experimentally determined IC50 values by the Cheng-Prussoff relation assuming a reversible competitive enzyme inhibition. The Km values of the substrates used under the assay conditions indicated above were: 90 μM (Z-Phe-Arg-AMC, cathepsin B), 10 μM (Z-Gly-Pro-Arg-AMC, cathepsin K), 2 μM (Z-Phe-Arg-AMC, cathepsin L), and 30 μM (Z-Val-Val-Arg-AMC, cathepsin S).
(§3) The indicated Ki values are averages of the inhibition constants calculated on the basis of 2 to 4 independent dose-effect plots.
(§4) • 20 nM calpain-I—isolated from human erythrocytes (Calbiochem #208713), 100 μM Suc-Leu-Tyr-AMC (Bachem #I-1355) as substrate in buffer with 62 mM imidazole, 0.3 mM CaCl2, 0.10% CHAPS, 0.05% BSA, 1 mM DTT at pH 7.3 and room temperature. 1. Cathepsin B: • 0.25 nM cathepsin B—isolated from human liver (Calbiochem #219362), 100 μM Z-Phe-Arg-AMC (Bachem #I-1160) as substrate 50 mM MES, 2 mM EDTA, 0.05% Brij 35, 2.5 mM L-cysteine, pH 6.0, room temperature. 3. Cathepsin K: • 3 nM cathepsin K activated from recombinant human procathepsin K from E. coli (Calbiochem #342001), 10 μM Z-Gly-Pro-Arg-AMC (Biomol #P-142) as substrate in 50 mM MES, 2 mM EDTA, 0.05% Brij 35, 2.5 mM L-cysteine, pH 6.0, room temperature. 4. Cathepsin L: • 1 nM cathepsin L—isolated from human liver (Calbiochem #219402), 2 μM Z-Phe-Arg-AMC (Bachem #I-1160) as substrate in 50 mM MES, 2 mM EDTA, 0.05% Brij 35, 2.5 mM L-cysteine, pH 6.0, room temperature. 5. Cathepsin S: • 0.5 nM recombinant human cathepsin S from E. coli (Calbiochem #219343), 20 μM Z-Val-Val-Arg-AMC (Bachem #I-1540) as substrate in 50 mM MES, 2 mM EDTA, 0.05% Brij 35, 2.5 mM L-cysteine, pH 6.0, room temperature.

[2] = target: T2, cathepsin K activated from recombinant human procathepsin K (Homo sapiens, UniProt P43235); assay: Cathepsin K enzyme inhibition in vitro (kinetic fluorescence assay); details: Ki(cathepsin K)/Ki(calpain) ratio
T2 construct: purchased Calbiochem 342001; host or cells: E. coli
T2 sequence (P43235 115-329): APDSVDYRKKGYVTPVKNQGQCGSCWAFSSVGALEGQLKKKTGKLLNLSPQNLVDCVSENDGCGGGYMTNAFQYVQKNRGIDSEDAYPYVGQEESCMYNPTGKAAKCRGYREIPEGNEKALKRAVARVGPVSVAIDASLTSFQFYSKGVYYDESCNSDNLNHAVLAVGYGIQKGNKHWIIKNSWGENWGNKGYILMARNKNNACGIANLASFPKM
Experimental: as §1, §2, §3, §4

[3] = target: T3, recombinant human cathepsin S (Homo sapiens, UniProt P25774); assay: Cathepsin S enzyme inhibition in vitro (kinetic fluorescence assay); details: Ki(cathepsin S)/Ki(calpain) ratio
T3 construct: purchased Calbiochem 219343; host or cells: E. coli
T3 sequence (P25774 115-331): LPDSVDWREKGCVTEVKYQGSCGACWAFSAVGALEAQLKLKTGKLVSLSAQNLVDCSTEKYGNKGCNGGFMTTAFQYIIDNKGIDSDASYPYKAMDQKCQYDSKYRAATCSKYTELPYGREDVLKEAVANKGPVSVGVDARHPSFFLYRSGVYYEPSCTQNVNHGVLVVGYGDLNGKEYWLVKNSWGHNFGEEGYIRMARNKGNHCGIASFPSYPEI
Experimental: as §1, §2, §3, §4

[4] = target: T4, cathepsin B isolated from human liver (Homo sapiens, UniProt P07858); assay: Cathepsin B enzyme inhibition in vitro (kinetic fluorescence assay); details: Ki(cathepsin B)/Ki(calpain) ratio
T4 construct: cathepsin B—isolated from human liver; purchased Calbiochem 219362; host or cells: human liver (tissue-derived)
Experimental: as §1, §2, §3, §4

SMILES	Ki [1]	Sel cat. K [2]	Sel cat. S [3]	Sel cat. B [4]
O=C(NCCCc1ccccc1)C(=O)C(Cc1ccccc1)NC(=O)[C@H]1CCC(=O)N1Cc1ccccc1 (mixture of isomers) [Example 33, (2R)-1-Benzyl-N-(3,4-dioxo-1-phenyl-4-(3-phenylpropylamino)butan-2-yl)-5-oxopyrrolidine-2-carboxamide]	50 to 100 nM	++ (10<Ki(cathepsin B)/Ki(calpain)≦30)	++ (30<Ki(cathepsin B)/Ki(calpain)≦100)	++ (10<Ki(cathepsin B)/Ki(calpain)≦30)
O=C(C(=O)N1CCOCC1)C(Cc1ccccc1)NC(=O)[C@H]1CCC(=O)N1Cc1ccccc1 (mixture of isomers) [Example 54, (2R)-1-Benzyl-N-(4-morpholino-3,4-dioxo-1-phenylbutan-2-yl)-5-oxopyrrolidine-2-carboxamide]	100 to 600 nM			
COc1cccc(C(F)(F)F)c1CN1C(=O)CC[C@@H]1C(=O)NC(Cc1ccccc1)C(=O)C(=O)NC1CC1 (mixture of isomers) [Example 74, (2R)—N-(4-(Cyclopropylamino)-3,4-dioxo-1-phenylbutan-2-yl)-1-(2-methoxy-6-(trifluoromethyl)benzyl)-5-oxopyrrolidine-2-carboxamide]	100 to 600 nM			
O=C(NCCc1ccsc1)C(=O)C(Cc1ccccc1)NC(=O)[C@H]1CCC(=O)N1Cc1ccccc1 (single isomer, unassigned) [Example 71]	< 50 nM			
NC(=O)C(=O)C(Cc1ccccc1)NC(=O)c1cccc(=O)n1Cc1ccccc1 (centres unmarked) [Example 4, N-(4-Amino-3,4-dioxo-1-phenylbutan-2-yl)-1-benzyl-6-oxo-1,6-dihydropyridine-2-carboxamide]	50 to 100 nM		+ (10<Ki(cathepsin S)/Ki(calpain)≦30)	++ (10<Ki(cathepsin B)/Ki(calpain)≦30)
CN1C[C@H](C(=O)NC(Cc2ccccc2)C(=O)C(N)=O)N(Cc2ccccc2)C1=O (stereo partly drawn) [Example 18, (4R)—N-(4-Amino-3,4-dioxo-1-phenylbutan-2-yl)-3-benzyl-1-methyl-2-oxoimidazolidine-4-carboxamide]	100 to 600 nM			+++ (Ki(cathepsin B)/Ki(calpain) ratio of >30)
O=C(NCc1nc2ccccc2s1)C(=O)C(Cc1ccccc1)NC(=O)[C@H]1CCC(=O)N1Cc1ccccc1 (stereo partly drawn) [Example 53, (2R)—N-(4-(Benzo[d]thiazol-2-ylmethylamino)-3,4-dioxo-1-phenylbutan-2-yl)-1-benzyl-5-oxopyrrolidine-2-carboxamide]	50 to 100 nM			

Next, values leading:

Ki [1]	Sel cat. K [2]	Sel cat. S [3]	Sel cat. B [4]	SMILES
100 to 600 nM	++ (10<Ki(cathepsin B)/Ki(calpain)≦30)	++ (30<Ki(cathepsin B)/Ki(calpain)≦100)		O=C(NCCc1ccccn1)C(=O)C(Cc1ccccc1)NC(=O)[C@H]1CCC(=O)N1Cc1ccccc1 (mixture of isomers) [Example 31, (2R)-1-Benzyl-N-(3,4-dioxo-1-phenyl-4-(2-(pyridin-2-yl)-ethylamino)butan-2-yl)-5-oxopyrrolidine-2-carboxamide]
50 to 100 nM	+ (5<Ki(cathepsin K)/Ki(calpain)≦10)	++ (30<Ki(cathepsin B)/Ki(calpain)≦100)	++ (10<Ki(cathepsin B)/Ki(calpain)≦30)	O=C(NCCCc1ccccn1)C(=O)C(Cc1ccccc1)NC(=O)[C@H]1CCC(=O)N1Cc1ccccc1 (mixture of isomers) [Example 32, (2R)-1-Benzyl-N-(3,4-dioxo-1-phenyl-4-(3-(pyridin-2-yl)propylamino)butan-2-yl)-5-oxopyrrolidine-2-carboxamide]
100 to 600 nM				O=C(NCc1cncs1)C(=O)C(Cc1ccccc1)NC(=O)[C@H]1CCC(=O)N1Cc1ccccc1 (mixture of isomers) [Example 52, (2R)-1-Benzyl-N-(3,4-dioxo-1-phenyl-4-(thiazol-5-ylmethylamino)butan-2-yl)-5-oxopyrrolidine-2-carboxamide]
100 to 600 nM				CCNC(=O)C(=O)C(Cc1ccccc1)NC(=O)[C@H]1CCC(=O)N1Cc1ccc(C(F)(F)F)cc1 (mixture of isomers) [Example 55, (2R)—N-(4-(ethylamino)-3,4-dioxo-1-phenylbutan-2-yl)-5-oxo-1-(4-(trifluoromethyl)benzyl)pyrrolidine-2-carboxamide]
50 to 100 nM	+ (5<Ki(cathepsin K)/Ki(calpain)≦10)	++ (30<Ki(cathepsin B)/Ki(calpain)≦100)	++ (10<Ki(cathepsin B)/Ki(calpain)≦30)	O=C(NC1CCCCC1)C(=O)C(Cc1ccccc1)NC(=O)[C@H]1CCC(=O)N1Cc1ccccc1 (mixture of isomers) [Example 56, (2R)-1-Benzyl-N-(4-(cyclohexylamino)-3,4-dioxo-1-phenylbutan-2-yl)-5-oxopyrrolidine-2-carboxamide]
100 to 600 nM				O=C(NC[C@H]1CCCO1)C(=O)C(Cc1ccccc1)NC(=O)[C@H]1CCC(=O)N1Cc1ccccc1 (mixture of isomers) [Example 69, (2R)-1-Benzyl-N-(3,4-dioxo-1-phenyl-4-(((R)-tetrahydrofuran-2-yl)methylamino)-butan-2-yl)-5-oxopyrrolidine-2-carboxamide]
50 to 100 nM				O=C(NCc1ccco1)C(=O)C(Cc1ccccc1)NC(=O)[C@H]1CCC(=O)N1Cc1ccccc1 (mixture of isomers) [Example 72, (2R)-1-Benzyl-N-(4-(furan-2-ylmethylamino)-3,4-dioxo-1-phenylbutan-2-yl)-5-oxopyrrolidine-2-carboxamide]
< 50 nM	+ (5<Ki(cathepsin K)/Ki(calpain)≦10)	+ (10<Ki(cathepsin S)/Ki(calpain)≦30)		NC(=O)C(=O)C(Cc1ccccc1)NC(=O)[C@H]1CCC(=O)N1Cc1ccc2ccccc2c1 (stereo partly drawn) [Example 12, (2R)—N-(4-Amino-3,4-dioxo-1-phenylbutan-2-yl)-1-(naphthalen-2-ylmethyl)-5-oxopyrrolidine-2-carboxamide]
50 to 100 nM				O=C(NC[C@@H]1CCCO1)C(=O)C(Cc1ccccc1)NC(=O)[C@H]1CCC(=O)N1Cc1ccccc1 (stereo partly drawn) [Example 70, (2R)-1-Benzyl-N-(3,4-dioxo-1-phenyl-4-(((S)-tetrahydrofuran-2-yl)methylamino)-butan-2-yl)-5-oxopyrrolidine-2-carboxamide]
